This passage reports IC50 results from patent publication US10487088B2, “Tricyclic compound serving as immunomodulator” (Chia Tai Tianqing Pharmaceutical Group Co., Ltd., priority 2016, dated 2019).

The target in the assay is T1, recombinant human IDO1 enzyme (Homo sapiens, UniProt P14902).
T1 construct: purchased NTRC NTRC-hlDO-10K
T1 sequence (P14902 whole entry): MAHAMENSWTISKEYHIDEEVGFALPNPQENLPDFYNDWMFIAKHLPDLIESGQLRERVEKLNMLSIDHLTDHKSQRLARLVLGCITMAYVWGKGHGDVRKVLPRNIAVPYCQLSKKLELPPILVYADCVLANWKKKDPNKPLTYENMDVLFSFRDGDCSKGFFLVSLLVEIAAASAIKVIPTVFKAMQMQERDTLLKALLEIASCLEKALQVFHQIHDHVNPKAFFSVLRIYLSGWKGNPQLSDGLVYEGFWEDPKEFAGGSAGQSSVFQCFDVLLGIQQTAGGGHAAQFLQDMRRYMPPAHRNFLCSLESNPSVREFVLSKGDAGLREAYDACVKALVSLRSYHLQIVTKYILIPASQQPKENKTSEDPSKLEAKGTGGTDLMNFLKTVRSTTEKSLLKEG
In words: In vitro hIDO1 enzyme activity test (NFK Green fluorescence). Format: biochemical. Particulars: recombinant human IDO1, L-tryptophan substrate, pH 6.5. The method, then: The change of NFK production was detected by using the NFK Green™ fluorescent molecule, which is the metabolite of the IDO1 enzyme, and the IC50 value of the compound was used as an index, to evaluate the inhibitory effect of the compound on the recombinant human IDO1 enzyme.
IDO1 Enzyme Activity Assay Kit, NTRC # NTRC-hlDO-10K;
The compound was diluted to 1 mM in DMSO, and then diluted 3-fold in duplicate wells, with 10 gradients. 48 μL of 50 mM phosphate buffer (pH 6.5) was transferred to the compound plate via Bravo automated liquid handling platform. 2 μL of the diluted solution of the compound in DMSO was then added and mixed, followed by transferring 10 μL therein to an enzyme reaction plate.
The IDO1 enzyme was diluted to 20 nM in the reaction buffer (50 mM phosphate buffer pH 6.5, 0.1% Tween-20, 2% glycerol, 20 mM ascorbic acid, 20 μg/mL catalase and 20 μM methylene blue), and 20 μL of the solution was transferred to an enzyme reaction plate and incubated at 23° C. for 30 min. The reaction was started by adding 10 μL of 400 μM L-type tryptophan substrate and incubated at 23° C. for 90 min. 10 μL of NFK Green™ fluorescent dye was added, and the plate was sealed with the sealing film, incubated at 37° C. for 4 h, and then read on Envision Multimode Plate Reader (Ex 400 nm/Em 510 nm).
The control wells with the IDO1 enzyme but no compound was set as 0% inhibition, and the control wells without the IDO1 enzyme was set as 100% inhibition, and the IC50 value of the compound was calculated by analyzing the data with XLFit 5.
For orientation: IC50 means the concentration that gives 50% inhibition. `OC(CC1c2nn(C(F)(F)F)cc2-c2cncn21)C1CCCCC1` (single isomer, unassigned) [Example 1, 1-cyclohexyl-2-(2-(trifluoromethyl)-2,8-dihydroimidazo[1′,5′:1,5]pyrrolo[3,4-c]pyrazol-8-yl)ethanol]: the 50% inhibitory concentration (IC50) is above 10 µM.

`OC(CC1c2nn(C(F)(F)F)cc2-c2cncn21)C1CCCCC1` (single isomer, unassigned) [Example 2, 1-cyclohexyl-2-(2-(trifluoromethyl)-2,8-dihydroimidazo[1′,5′:1,5]pyrrolo[3,4-c]pyrazol-8-yl)ethanol]: the IC50 was above 10 µM.

For the compound `OC(CC1c2nn(C(F)(F)F)cc2-c2cncn21)C1CCCCC1` (single isomer, unassigned) [Example 3, 1-cyclohexyl-2-(2-(trifluoromethyl)-2,8-dihydroimidazo[1′,5′:1,5]pyrrolo[3,4-c]pyrazol-8-yl)ethanol], the IC50 is above 10 µM.

`OC(CC1c2sccc2-c2cncn21)C1CCCCC1` (single isomer, unassigned) [Example 5, cyclohexyl-2-(8H-thieno[3′,2′:3,4]pyrrolo[1,2-c]imidazol-8-yl)ethanol]: the half-maximal inhibitory concentration (IC50) worked out at 5.03 µM.

Turning to `OC(CC1c2sccc2-c2cncn21)C1CCCCC1` (single isomer, unassigned) [Example 6, cyclohexyl-2-(8H-thieno[3′,2′:3,4]pyrrolo[1,2-c]imidazol-8-yl)ethanol], the half-maximal inhibitory concentration (IC50) turned out to be 9.67 µM.

`OC(CC1c2sccc2-c2cncn21)C1CCCCC1` (single isomer, unassigned) [Example 8, cyclohexyl-2-(8H-thieno[3′,2′:3,4]pyrrolo[1,2-c]imidazol-8-yl)ethanol]: the half-inhibitory concentration (IC50) is 0.0648 µM.

As for `c1cc2c(s1)C(C1CCCCC1)n1cncc1-2` (single isomer, unassigned) [Example 13, 8-cyclohexyl-8H-thieno[3,4]pyrrolo[1,5-a]imidazole], the IC50 was above 10 µM.

Regarding `c1cc2c(s1)C(CC1CCCCC1)n1cncc1-2` (single isomer, unassigned) [Example 15, 8-(cyclohexylmethyl)-8H-thieno[3,4]pyrrolo[1,5-a]imidazole], the IC50 came out at 5.22 µM.

On to `c1cc2c(s1)C(COC1CCCCC1)n1cncc1-2` (single isomer, unassigned) [Example 17, 8-((cyclohexyloxy)methyl)-8H-thieno[3′,2′:3,4]pyrrolo[1,2-c]imidazole], for which the half-maximal inhibitory concentration (IC50) came out at 0.338 µM.

With `c1cc2c(s1)C(COC1CCCCC1)n1cncc1-2` (single isomer, unassigned) [Example 18, 8-((cyclohexyloxy)methyl)-8H-thieno[3′,2′:3,4]pyrrolo[1,2-c]imidazole], the concentration for half-maximal inhibition (IC50) is above 10 µM.

In the case of `Fc1cc2c(s1)C(CCC1CCCCC1)n1cncc1-2` (single isomer, unassigned) [Example 19, 8-(2-cyclohexylethyl)-2-fluoro-8H-thieno[3′,2′:3,4]pyrrolo[1,2-c]imidazole], the half-maximal inhibitory concentration (IC50) is above 10 µM.

Consider `Fc1cc2c(s1)C(CCC1CCCCC1)n1cncc1-2` (single isomer, unassigned) [Example 20, 8-(2-cyclohexylethyl)-2-fluoro-8H-thieno[3′,2′:3,4]pyrrolo[1,2-c]imidazole], for which the half-maximal inhibitory concentration (IC50) was 0.586 µM.

In the case of `FC1(F)CCC(CCC2c3sccc3-c3cncn32)CC1` (single isomer, unassigned) [Example 21, 8-(2-(4,4-difluorocyclohexyl)ethyl)-8H-thieno[3′,2′:3,4]pyrrolo[1,2-c]imidazole], the concentration for half-maximal inhibition (IC50) was 9.16 µM.

In the case of `O=C1CC[C@H]2C[C@@H]([C@@H](O)CC3c4sccc4-c4cncn43)CCN12` (single isomer, unassigned) [Example 26], the concentration for half-maximal inhibition (IC50) is above 10 µM.

In the case of `O=C1CC[C@H]2C[C@@H]([C@@H](O)CC3c4sccc4-c4cncn43)CCN12` (single isomer, unassigned) [Example 27], the IC50 is 0.869 µM.

Consider `c1cc2c(s1)C(C1CCCOC1)n1cncc1-2` (single isomer, unassigned) [Example 33, 8-(tetrahydro-2H-pyran-3-yl)-8H-thieno[3′,2′:3,4]pyrrolo[1,2-c]imidazole], for which the IC50 is above 10 µM.

In the case of `c1cc2c(s1)C(C1CCCOC1)n1cncc1-2` (single isomer, unassigned) [Example 34, 8-(tetrahydro-2H-pyran-3-yl)-8H-thieno[3′,2′:3,4]pyrrolo[1,2-c]imidazole], the 50% inhibitory concentration (IC50) was above 10 µM.

`c1cc2c(s1)C(C1CCCOC1)n1cncc1-2` (single isomer, unassigned) [Example 35, 8-(tetrahydro-2H-pyran-3-yl)-8H-thieno[3′,2′:3,4]pyrrolo[1,2-c]imidazole]: the IC50 was determined as 2.81 µM.

On to `c1cc2c(s1)C(C1CCCOC1)n1cncc1-2` (single isomer, unassigned) [Example 36, 8-(tetrahydro-2H-pyran-3-yl)-8H-thieno[3′,2′:3,4]pyrrolo[1,2-c]imidazole], for which the IC50 came out at 2.43 µM.

With `c1cc2c(s1)C(C1CCOCC1)n1cncc1-2` (single isomer, unassigned) [Example 37, 8-tetrahydropyran-4-8H-thieno[3,4]pyrrolo[1,5-a]imidazole], the half-maximal inhibitory concentration (IC50) is 2.4 µM.

For `c1cc2c(s1)C(C1CCOCC1)n1cncc1-2` (single isomer, unassigned) [Example 38, 8-tetrahydropyran-4-8H-thieno[3,4]pyrrolo[1,5-a]imidazole], the concentration for half-maximal inhibition (IC50) is above 10 µM.

In the case of `FC1(F)CCC([C@@H]2c3sccc3-c3cncn32)CC1` (single isomer, unassigned) [Example 40], the 50% inhibitory concentration (IC50) was above 10 µM.

In the case of `OCC1(C2c3sccc3-c3cncn32)CCCCC1` (single isomer, unassigned) [Example 43, [1-(8H-thieno[3,4]pyrrolo[1,5-a]imidazol-8-yl)cyclohexyl]methanol], the half-maximal inhibitory concentration (IC50) is above 10 µM.

For `c1cc2c(s1)C(C1CCC3(CC1)CC3)n1cncc1-2` (single isomer, unassigned) [Example 44, 8-spiro[2.5]octan-6-yl-8H-thieno[3,4]pyrrolo[1,5-a]imidazole], the half-inhibitory concentration (IC50) is above 10 µM.

For `c1cc2c(s1)C(C1CCC3(CC1)CC3)n1cncc1-2` (single isomer, unassigned) [Example 45, 8-spiro[2.5]octan-6-yl-8H-thieno[3,4]pyrrolo[1,5-a]imidazole], the concentration for half-maximal inhibition (IC50) came out at 3.83 µM.

Take `c1cc2c(s1)C(C13CCC(CC1)CC3)n1cncc1-2` (single isomer, unassigned) [Example 48, 8-(4-bicyclo[2.2.2]octyl)-8H-thieno[3,4]pyrrolo[1,5-a]imidazole]: the IC50 came to 0.518 µM.

`c1cc2c(s1)C(C13CCC(CC1)CC3)n1cncc1-2` (single isomer, unassigned) [Example 49, 8-(4-bicyclo[2.2.2]octyl)-8H-thieno[3,4]pyrrolo[1,5-a]imidazole]: the IC50 was above 10 µM.

Turning to `OC1CCCCC1C1c2sccc2-c2cncn21` (single isomer, unassigned) [Example 50, 2-(8H-thieno[3,4]pyrrolo[1,5-a]imidazol-8-yl)cyclohexanol], the 50% inhibitory concentration (IC50) was above 10 µM.

As for `OC1CCCCC1C1c2sccc2-c2cncn21` (single isomer, unassigned) [Example 51, 2-(8H-thieno[3,4]pyrrolo[1,5-a]imidazol-8-yl)cyclohexanol], the IC50 was above 10 µM.

For `OC1CCCCC1C1c2sccc2-c2cncn21` (single isomer, unassigned) [Example 52, 2-(8H-thieno[3,4]pyrrolo[1,5-a]imidazol-8-yl)cyclohexanol], the half-inhibitory concentration (IC50) was found to be 0.676 µM.
